Data published in PubChem BioAssay AID1963431 (Molecular Pharmacology Branch, DTP, NCI, 2024).

Test system: Rh18 complex spheroid viability, percent test/control
Experiment: Anticancer human tumor Rh18 cell line growth inhibition [Asc];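 note: spheroids exposed to compound for 7 days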;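 for viability, T/C: 100% = DMSO vehicle control wells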
Conditions: for IC50: curve of first compound; for viability, T/C: stronger effect = lower value
Outline: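 Stromal components (HUVEC and hMSC) are co-assembled with the cancer cells into multicellular spheroids. Drugs are then added singly or paired, at concentrations falling by half-log increments from a clinically achievable maximum, capped at 10 microM without known Cmax.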

[1] = second compound 0.01 µM, first compound 0.00316 µM
[2] = second compound 0.01 µM, first compound 0.01 µM
[3] = second compound 0.01 µM, first compound 0.0316 µM
[4] = second compound 0.01 µM, first compound 0.1 µM
[5] = second compound 0.01 µM, first compound 0.316 µM
[6] = second compound 0.01 µM, first compound 1 µM
[7] = second compound 0.0316 µM, first compound 0.00316 µM
[8] = second compound 0.0316 µM, first compound 0.01 µM
[9] = second compound 0.0316 µM, first compound 0.0316 µM
[10] = second compound 0.0316 µM, first compound 0.1 µM
[11] = second compound 0.0316 µM, first compound 0.316 µM
[12] = second compound 0.0316 µM, first compound 1 µM
[13] = second compound 0.1 µM, first compound 0.00316 µM
[14] = second compound 0.1 µM, first compound 0.01 µM
[15] = second compound 0.1 µM, first compound 0.0316 µM
[16] = second compound 0.1 µM, first compound 0.1 µM
[17] = second compound 0.1 µM, first compound 0.316 µM
[18] = second compound 0.1 µM, first compound 1 µM
[19] = second compound 0.316 µM, first compound 0.00316 µM
[20] = second compound 0.316 µM, first compound 0.01 µM
[21] = second compound 0.316 µM, first compound 0.0316 µM
[22] = second compound 0.316 µM, first compound 0.1 µM
[23] = second compound 0.316 µM, first compound 0.316 µM
[24] = second compound 0.316 µM, first compound 1 µM
[25] = second compound 1 µM, first compound 0.00316 µM
[26] = second compound 1 µM, first compound 0.01 µM
[27] = second compound 1 µM, first compound 0.0316 µM
[28] = second compound 1 µM, first compound 0.1 µM
[29] = second compound 1 µM, first compound 0.316 µM
[30] = second compound 1 µM, first compound 1 µM

IC50 (second compound 0.01 µM)	IC50 (second compound 0.0316 µM)	IC50 (second compound 0.1 µM)	IC50 (second compound 0.316 µM)	IC50 (second compound 1 µM)	SMILES	viability, T/C [1]	viability, T/C [2]	viability, T/C [3]	viability, T/C [4]	viability, T/C [5]	viability, T/C [6]	viability, T/C [7]	viability, T/C [9]	viability, T/C [10]	viability, T/C [15]	viability, T/C [16]	viability, T/C [21]	viability, T/C [22]	viability, T/C [27]	viability, T/C [28]	further results
< 3.16 nM	< 3.16 nM	< 3.16 nM	< 3.16 nM	< 3.16 nM	CCN1CCN(Cc2ccc(Nc3ncc(F)c(-c4cc(F)c5nc(C)n(C(C)C)c5c4)n3)nc2)CC1 + CNC(C)C(=O)NC1CN(S(=O)(=O)c2cccc(S(=O)(=O)N3CCC4CCC(C(=O)NC(c5ccccc5)c5ccccc5)N4C(=O)C(NC(=O)C(C)NC)C3)c2)CCC2CCC(C(=O)NC(c3ccccc3)c3ccccc3)N2C1=O	57%	50%	39.2%	40.6%	58.6%	86.7%	47.7%	39.6%	38%	35.2%	40.1%	38.3%	35.7%	30.6%	29.5%	viability, T/C [8]: 46.1%; viability, T/C [11]: 48.7%; viability, T/C [12]: 90.9%; viability, T/C [13]: 47.1%; viability, T/C [14]: 47.5%; viability, T/C [17]: 48.3%; viability, T/C [18]: 53.8%; viability, T/C [19]: 59.2%; viability, T/C [20]: 47.2%; viability, T/C [23]: 44.4%; viability, T/C [24]: 67.4%; viability, T/C [25]: 34.7%; viability, T/C [26]: 30%; viability, T/C [29]: 38.7%; viability, T/C [30]: 60.7%
3.74 nM	1.53 nM	< 0.316 nM	0.406 nM	0.588 nM	Cn1ncnc1[C@H]1c2n[nH]c(=O)c3cc(F)cc(c23)N[C@@H]1c1ccc(F)cc1 + CNC(C)C(=O)NC1CN(S(=O)(=O)c2cccc(S(=O)(=O)N3CCC4CCC(C(=O)NC(c5ccccc5)c5ccccc5)N4C(=O)C(NC(=O)C(C)NC)C3)c2)CCC2CCC(C(=O)NC(c3ccccc3)c3ccccc3)N2C1=O	53.5%	26.7%	18.4%	19.2%	–	–	36.5%	18.7%	21.3%	14.8%	15%	12.4%	20%	18.4%	14.2%	viability, T/C (second compound 0.01 µM, first compound 0.000316 µM): 54.4%; viability, T/C (second compound 0.01 µM, first compound 0.001 µM): 64.3%; viability, T/C (second compound 0.0316 µM, first compound 0.000316 µM): 62.7%; viability, T/C (second compound 0.0316 µM, first compound 0.001 µM): 58.1%; viability, T/C [8]: 23.1%; viability, T/C (second compound 0.1 µM, first compound 0.000316 µM): 39.4%; viability, T/C (second compound 0.1 µM, first compound 0.001 µM): 47.7%; viability, T/C [13]: 34.6%; viability, T/C [14]: 18%; viability, T/C (second compound 0.316 µM, first compound 0.000316 µM): 55.7%; viability, T/C (second compound 0.316 µM, first compound 0.001 µM): 29.6%; viability, T/C [19]: 25.5%; viability, T/C [20]: 19.6%; viability, T/C (second compound 1 µM, first compound 0.000316 µM): 49.1%; viability, T/C (second compound 1 µM, first compound 0.001 µM): 51.2%; viability, T/C [25]: 42.9%; viability, T/C [26]: 26.1%
404 nM	< 31.6 nM	< 31.6 nM	< 31.6 nM	< 31.6 nM	O=C(c1cc(Cc2n[nH]c(=O)c3ccccc23)ccc1F)N1CCN(C(=O)C2CC2)CC1 + CNC(C)C(=O)NC1CN(S(=O)(=O)c2cccc(S(=O)(=O)N3CCC4CCC(C(=O)NC(c5ccccc5)c5ccccc5)N4C(=O)C(NC(=O)C(C)NC)C3)c2)CCC2CCC(C(=O)NC(c3ccccc3)c3ccccc3)N2C1=O	–	–	60.7%	48.4%	49.6%	39.4%	–	45.8%	49.9%	42%	40.2%	40%	38.9%	32.2%	36.8%	viability, T/C (second compound 0.01 µM, first compound 3.16 µM): 13.2%; viability, T/C (second compound 0.01 µM, first compound 10 µM): 16.7%; viability, T/C [11]: 46.4%; viability, T/C [12]: 34.5%; viability, T/C (second compound 0.0316 µM, first compound 3.16 µM): 16.7%; viability, T/C (second compound 0.0316 µM, first compound 10 µM): 18.1%; viability, T/C [17]: 26.7%; viability, T/C [18]: 27.8%; viability, T/C (second compound 0.1 µM, first compound 3.16 µM): 11.1%; viability, T/C (second compound 0.1 µM, first compound 10 µM): 12.8%; viability, T/C [23]: 36.8%; viability, T/C [24]: 26.6%; viability, T/C (second compound 0.316 µM, first compound 3.16 µM): 11.3%; viability, T/C (second compound 0.316 µM, first compound 10 µM): 12.2%; viability, T/C [29]: 32.5%; viability, T/C [30]: 26.1%; viability, T/C (second compound 1 µM, first compound 3.16 µM): 10.8%; viability, T/C (second compound 1 µM, first compound 10 µM): 10.9%
61.8 nM	3.16 nM	< 3.16 nM	< 3.16 nM	< 3.16 nM	O=C(c1ccc(F)c(F)c1Nc1ccc(I)cc1F)N1CC(O)([C@@H]2CCCCN2)C1 + CNC(C)C(=O)NC1CN(S(=O)(=O)c2cccc(S(=O)(=O)N3CCC4CCC(C(=O)NC(c5ccccc5)c5ccccc5)N4C(=O)C(NC(=O)C(C)NC)C3)c2)CCC2CCC(C(=O)NC(c3ccccc3)c3ccccc3)N2C1=O	53.6%	59.4%	48.5%	45.2%	41.8%	14.8%	50.4%	43.6%	47.7%	36.1%	43.4%	38.2%	42.3%	37.3%	42.9%	viability, T/C [8]: 46.1%; viability, T/C [11]: 52.1%; viability, T/C [12]: 20.4%; viability, T/C [13]: 39.7%; viability, T/C [14]: 40.8%; viability, T/C [17]: 37.9%; viability, T/C [18]: 8.57%; viability, T/C [19]: 43.8%; viability, T/C [20]: 47%; viability, T/C [23]: 41.6%; viability, T/C [24]: 13.5%; viability, T/C [25]: 41.5%; viability, T/C [26]: 37.6%; viability, T/C [29]: 28.9%; viability, T/C [30]: 11.6%
